In patent US20050003546A1, “Viral uptake into cells and tissues” (Yale University, priority 2001, published 2005):

Experiments:
COS-7 cells = test: Ad-GFP adenovirus infection of COS-7 cells (Western blot, fluorescence microscopy, flow cytometry); format: cell-based
Description: (§1) Adenoviruses (1 m.o.i. or approximately 1×10^6 pfu per 60 mm dish) were pre-complexed with the peptides (0.05 to 5 mM) in 100 μl of serum free media (OptiMEM; Gibco, Grand Island, N.Y.) for 30 min at room temperature. Cells (COS-7 or BAEC) were grown on 60 mm dishes until 90% confluent and media was changed to serum free (2 ml) before exposure to the adenovirus complex. The complex (100 μl) was added to the cells for 4 hrs and then the cells were washed and changed to complete growth media for 24 to 48 hours.
(§2) Western blotting was performed as described previously (16). Briefly, cells were lysed (50 mM Tris-HCl, 0.1 mM EDTA, 0.1 mM EGTA, 1% (v/v) Nonidet P-40, 0.1% SDS, 0.1% deoxycholic acid, 1 mM Pefabloc, 10 μg/ml aprotinin, and 10 μg/ml leupeptin) for 1 hr at 4° C. and the soluble material was separated on a 10% SDS-PAGE, and transferred to a nitrocellulose membrane. Blocked membranes were probed using the specific polyclonal anti-GFP (Clontech, Palo Alto, Calif.) or the monoclonal anti-hsp90(Stressgen, Victoria, Canada) antibodies. After washing and incubating with secondary antibodies, immunoreactive proteins were visualized by ECL detection system (Amersham, Buckinghamshire, UK).
(§3) Live cells infected with Ad-GFP were washed with serum free media and visualized using a Zeiss Axiovert 200 microscope under phase contrast or GFP filters (excitation 450 nm, emission 510 nm). Images were captured using the Openlab Imaging software (Improvision, Lexington, Mass.). Flow cytometric analysis of GFP expressing cells was performed 48 h after following infection. Cells were trypsinized, PBS washed and fixed in 70% ethanol at 4° C. Cells were resuspended in PBS and were analyzed by gating for GFP fluorescence by flow cytometry using a FACSort (Becton Dickinson, San Jose, Calif.).

[1] = tested on: blood vessels of the lower limbs (PECAM/CD31 positive area); test: Ischemic hind limb angiogenesis assay with intramuscular Ad-VEGF; format: in vivo, mouse; conditions: intramuscular Ad-VEGF 5.5×10^7 pfu in presence of AP, hind limb ischemia
Description: (§4) Ischemic hind limb model was performed as described previously (19). Briefly, following anesthesia, the left femoral artery was exposed under a dissection microscope. The proximal end of the femoral artery and the distal portion of the saphenous artery were ligated. All branches between these two sites were cauterized, and arteriectomy was performed. Following arteriectomy, 25 μl of either virus storage buffer, Ad-VEGF (5.5×10^7 pfu), Ad- -ga l (2.5×10^7 pfu), pre-complexed with AP (30 min room temperature; 10 μM) or AP alone (at least 5 animals per group) was injected into the adductor muscle at 3 different sites. Mice were sacrificed 21 days following surgery and muscles of the lower limbs were harvested, methanol fixed and paraffm embedded. Tissue sections (5 μm thick) were stained using an anti-CD31 antibody (Pharmingen, San Diego, Calif.), and hematoxylin counter stained. Pictures from 4 random areas of each section, and 3 sections per mice were taken using a Kodak digital camera mounted on a light microscope (40× objective). Capillary density was quantified by measuring the percentage of CD31 positive area out of total area using the Matlab software (The Math Works, Inc.).

[2] = tested on: bovine aortic endothelial cells (BAEC); test: Ad-GFP adenovirus infection of bovine aortic endothelial cells (Western blot); format: cell-based; conditions: AP/Ad-GFP complex
Description: as §1, §2

[3] = tested on: human umbilical vascular endothelial cells (HUVEC); test: Ret-GFP retrovirus infection of HUVEC (Western blot, fluorescence microscopy); format: cell-based
Description: For retroviral infections supernatant from phoenix retroviral packaging cell line expressing […] was incubated for 30 min at 37 C in presence of AP (0.1-0.5 mM). HUVEC cells were exposed to the mixture for 24 hrs and then harvested.
as §2
as §3, with “Flow cytometric analysis of GFP expressing cells was performed 48 h after following infection. Cells were trypsinized, PBS washed and fixed in 70% ethanol at 4° C.” left out

[4] = tested on: carotid arteries from eNOS -/- mice; test: Isometric studies: acetylcholine-induced relaxation of eNOS -/- carotid arteries transduced with Ad-eNOS; design: species or system mouse; conditions: carotid arteries of eNOS (-/-) mice luminally transduced with Ad-eNOS, without or pre-complexed with AP
Description: (§5) The common carotid artery was cannulated, flushed with a small amount (˜3 μl) of virus and tied off proximally. Approximately 3 μl of Ad-β-gal (1×10^9 pfu/ml), Ad-GFP (1×10^9 pfu/ml), Ad-eNOS (5×10^10 pfu/ml) virus or virus complexed with AP (10 μM) for 30 min at room temperature was injected. The virus-filled vessel was incubated in situ at 37° C. for 2 hours and then rinsed in saline prior to overnight (18 hours) incubation in complete DMEM at 37° C., 5% CO2. Control vessels were filled with viral storage buffer and treated in an identical manner.
Rings of carotid artery were studied as described previously (17). To assess endothelial function, vessels were precontracted with a submaximal (˜80%) concentration of PGF2α (5×10^−6 mol/L) prior to application of endothelium-dependent dilator acetylcholine (10^−10−3×10^−6 mol/L).

adductor muscle = test: Intramuscular Ad-β-gal reporter virus injection into mouse adductor muscle; format: in vivo; conditions: Ad-β-gal 5×10^7 pfU in 25 μl, three sites, pre-complexed with AP 10 μM
Description: (§6) -galactosidase expression was monitored by either X-Gal staining or activity 4 days after virus administration as described previously (14,18).
as §4

[5] = tested on: bovine aortic endothelial cells (BAEC); test: Nitric oxide release from BAEC infected with Ad-eNOS or Ad-GFP; format: cell-based
Description: as §1
Basal NO2^− release from BAEC, a stable metabolite of NO, was assessed in the medium as described (9). In all experiments, release was attenuated by a NOS inhibitor.

[6] = tested on: vascular permeability in mouse ear; test: Permeability assay: Evans blue leakage in mouse ear after intradermal Ad-VEGF; format: in vivo
Description: Ad-VEGF (5.5×10^7 pfu) or Ad-β-gal (2.5×10^7 pfu) with or without AP complex (10 μM; 30 minutes at room temperature) was injected intradermally into the ear of CD1 mouse. Evans blue leakage was monitored 4 days after infection as described previously (9).

[7] = tested on: mouse carotid artery endothelium; test: Endothelium specific gene transfer of mouse carotid arteries ex vivo (Ad-GFP, Ad-β-gal)
Description: as §5, §6

Row | Sequence | increasing Ad-GFP infection (GFP western blot), compared with AP (COS-7 cells; Tat peptide 0.1 and 0.5 mM, COS-7) | PECAM positive vessels compared to Ad-VEGF alone [1] [fold] | GFP expression levels (western blotting) compared to Ad-GFP alone [2] | GFP expression (western blot) ([3]; AP 0.05-0.5 mM added to Ret-GFP viral supernatant (approximately 10^6-10^7 pfu/ml)) | GFP positive cells (fluorescence microscopy) ([3]; AP/Ret-GFP complex) | endothelium dependent dilation in response to acetylcholine (Ach) [4] | staining for β-galactosidase activity in adductor muscle (adductor muscle) | Ad-eNOS mediated NO release from cultured endothelial cells ([5]; 1 m.o.i. of eNOS virus in absence or presence of AP) | NO release with control virus Ad-GFP ([5]; Ad-GFP 1 m.o.i. in absence or presence of AP) | increase of basal vascular permeability over Ad-VEGF alone ([6]; AP complexed with Ad-VEGF, mouse ear) [fold] | ability of VEGF to promote vascular leak (extravasation of Evans blue) ([6]; Ad-VEGF 5.5×10^7 pfu with AP, intradermal, 4 days) | expression of GFP (western blotting) (COS-7 cells; AP 0.05 to 5.0 mM pre-incubated 30 min with Ad-GFP 1 m.o.i., diluted 20 fold into medium, COS-7) | increase in cells strongly positive for GFP (M2), flow cytometry (COS-7 cells; Ad-GFP 1 m.o.i. pre-complexed with AP vs Ad-GFP alone, COS-7) [fold] | numbers of GFP positive cells (fluorescent microscopy) compared to virus alone (COS-7 cells; Ad-GFP pre-incubated with 0.5 mM AP, COS-7) | GFP expression when cells exposed to AP prior to or after Ad-GFP infection (no pre-complex step) (COS-7 cells; COS-7, Ad-GFP) | infectivity of the Ad-GFP virus (en face fluorescence imaging) ([7]; Ad-GFP 10^9 pfu/ml pre-complexed with AP 10 μM, luminal, ex vivo) | X-Gal staining in the endothelial cell layer (tissue cross section) ([7]; Ad-β-gal 10^9 pfu/ml, AP pre-treatment, ex vivo) | β-galactosidase activity increase over Ad-β-gal infection alone ([7]; carotid arteries treated with AP/Ad-β-gal complex)
1 | GRKKRRQRRRPPQ (Human immunodeficiency virus) [Tat peptide, synthetic peptide, HIV Tat amino acids 48-60] | as efficient as AP |  |  |  |  |  |  |  |  |  |  |  |  |  |  |  |  | 
2 | RQIKIWFQNRRMKWKK [AP] |  | > 4 | marked increase | dose-dependently enhanced | substantial increase | improved | increased | improves | does not influence | 2.5 | significantly enhanced | dose-dependently improved | ~10 | increased numbers | did not yield an increase | markedly improved | increased staining | two
